Series [1] is described as follows: Mean particle size of Compound (II)/silicone oil suspension by laser diffraction, with and without sonication. The format is physicochemical. As to conditions: 20 weight % Compound (II) suspension after wet pulverization, before silicone oil addition. The method, then: Suspensions containing Compound (II) and silicone oil in the contents presented in Table 4 were prepared according to the following method. A 0.1% or 1% silicone oil emulsion prepared by diluting Dow Corning® 365, 35% Dimethicone NF Emulsion (produced by Dow Corning Corporation) in purified water was used as the silicone oil. A sodium carboxymethylcellulose/mannitol/sodium dihydrogenphosphate solution was used as a dispersion medium. The solids content of Compound (II) was adjusted to 10 to 20 weight %. No foaming occurred in any of the suspensions.
An aqueous suspension (200 mg Compound (II)/1.1 to 2 mL) containing Compound (II) and silicone oil was prepared as follows. Note that the Compound (II) suspension was prepared in the same manner as in Example 1 except that the pulverizing time using a high-pressure homogenizer was shortened.
A Compound (II) bulk powder was suspended in a dispersion medium at 20 weight %. […]
(§1) The mean particle size of the suspension prepared as described above was measured using a SALD-3000J or SALD-3100 Laser Diffraction Particle Size Analyzer (produced by Shimadzu Corporation). […]
(§2) Separately, the suspension was sonicated for 1 min with an ultrasonic wave generator attached to the particle size analyzer, and the mean particle size of the treated suspension was measured as described above.

Series [2] in a line: Mean particle size of aripiprazole/silicone oil suspension by laser diffraction, with and without sonication. The format is physicochemical. As to conditions: 20 weight % aripiprazole suspension after wet pulverization, before silicone oil addition. The procedure:
Suspensions containing aripiprazole and silicone oil in the contents presented in Table 1 were prepared according to the following method. A 0.1% or 1% silicone oil emulsion prepared by diluting Dow Corning® 365, 35% Dimethicone NF Emulsion (produced by Dow Corning Corporation) in purified water was used as the silicone oil. A sodium carboxymethylcellulose/mannitol/sodium dihydrogenphosphate solution was used as a dispersion medium. The solids content of the aripiprazole was adjusted to about 10 to 20 weight %. No foaming occurred in any of the suspensions.
An aqueous suspension (200 mg aripiprazole/1.1 to 2 mL) containing aripiprazole (IM Depot) and silicone oil was prepared as follows.
Note that the aripiprazole suspension was prepared according to a wet pulverization method that uses a high-pressure homogenizer (see Japanese Patent Application No. 2007-200088 filed by Otsuka Pharmaceutical Co., Ltd.).
An aripiprazole hydrate bulk powder was suspended in a dispersion medium at 20 weight %. […]
as §1, §2

Consider `O=c1ccc2ccc(OCCCCN3CCN(c4cccc5sccc45)CC3)cc2[nH]1` [Compound (II), 7-[4-(4-benzo[b]thiophen-4-yl-piperazin-1-yl)butoxy]-1H-quinolin-2-one], for which the “Mean primary particle size of the resulting suspension” value in series [1] worked out at 5.3 μm. As to `O=C1CCc2ccc(OCCCCN3CCN(c4cccc(Cl)c4Cl)CC3)cc2N1` [aripiprazole, Aripiprazole], the “Mean primary particle size of the resulting suspension” value in series [2] was found to be 2.0 μm.

For the origin of these results see patent US9511022B2, “Suspension and cake composition containing carbostyryl derivative and silicone oil and/or silicone oil derivative” (Otsuka Pharmaceutical Co., Ltd., priority 2010, dated 2016).
